“Also recorded” adds a separate entry of the source.
How the values were obtained:
[1] = tested on: encephalitogenic BP10 T-cell line; test: Adoptive EAE by BP10 line stimulated in vitro with test substance; format: in vivo, rat
Description: The ability of a compound to enhance T cell activity may be determined, for example, using an in vivo assay testing the effect of a given compound on the severity of adoptive (passive) EAE, namely, EAE which is induced by the injection of activated encephalitogenic T cell line to the model animal. In order to test a compound, the encephalitogenic T cells are activated in the presence of the compound prior to injection. An exemplary procedure is described in the Examples section hereinbelow.
Antigen-specific T-cell lines were established from lymph node cells that had been stimulated with myelin basic protein (MBP; 10 μg/ml) for 3 days in stimulation medium as described below. Following stimulation, the T-cell blasts were isolated on Lympho-prep (Nycomed Pharma, Oslo, Norway) and seeded in propagation medium. Propagation medium was identical to stimulation medium without autologous serum, but supplemented with fetal calf serum 10% and T-cell growth factors from the supernatant of Con A stimulated spleen cells 10% (Mor et al. (1990) J Clin Invest, 85, 1594-1598). Animals were injected intra-peritoneally with 10^7 MBP-stimulated T cells, following 6-8 cycles of in vitro stimulations. It is known that MBP-reactive lines undergo a reduction in pathogenicity after 6 or more in vitro stimulations. In some experiments the BP10 line was stimulated with phorbol myristate acetate (PMA; 50 ng/ml) and ionomycin (500 ng/ml) for 3 days in stimulation medium, without antigen-presenting cells.
Active EAE was induced by subcutaneous injection of 25 μg guinea-pig MBP (GpMBP) in complete Freund's adjuvant (CFA). CFA was prepared by adding 4 mg/ml Mycobacterium tuberculosis H37Ra (Difco, Mich.) to incomplete Freund's adjuvant (IFA). Adoptive EAE was transferred by intra-peritoneal injection of guinea-pig MBP-activated cells of the BP10 line as described in Mor et al. (1993) J Clin Invest, 92, 2199-2206. […] Clinical scoring was: +1, paralysis of tail; +1.5, paresis of posterior paws and ataxia; +2, paraplegia; +3, paralysis extending to thoracic spine; +4, a moribund state.
Treatment with cefuroxime in vivo could affect many different host agents involved in EAE or AA as well as influencing the rats' bacterial flora. To test whether the antibiotic might directly modify the behavior of effector T cells, an encephalitogenic T-cell line was stimulated in the presence or absence of cefuroxime in vitro. The weakly encephalitogenic BP10 line was used, and was stimulated for 3 days with MBP in the presence or absence of cefuroxime (50 μg/ml). The activated T cells were then washed to remove the antibiotic, the T cells were injected intra-peritoneally into naïve recipient rats (10^7 per rat), and EAE was scored. The BP10 line at later stimulations was used, when its pathogenic potential is reduced, allowing to detect both suppression and enhancement of disease. […] To rule out antigen presenting cells (APC) as the target of the beta-lactam antibiotic, the encephalitogenic BP10 line was stimulated without APC using PMA (50 ng/ml) and Ionomycin (500 ng/ml) in the presence or absence of cefuroxime.

CD4+ human T cells = test: Human Autoimmune and Inflammatory Response Gene Array, anti-CD3 stimulated T cells; format: cell-based; settings: 120 min anti-CD3; for % decrease by Cef.: cefuroxime 50 μg/ml, ±SD, relative to control
Protocol: T cells were purified from the peripheral bloods of healthy human donors (Blood Bank, Sheba Medical center). The whole blood was incubated (20 min, 22° C.) with RosetteSep™ human T cell enrichment mixture (StemCell Technologies, Vancouver, Canada). The remaining unsedimented cells were then loaded onto lymphocyte separation medium (ICN Biomedicals, Irvine, Calif.), isolated by density centrifugation, and washed with PBS. […] In a second round of purification, CD3^+ T cells were labeled for selection with a magnetically coupled mAb against CD4 (Miltenyi Biotec, Auburn, Calif.).
Human CD4 T cells were isolated as described, and incubated in 24 well plates (Nunc), 4×10^6 cells/ml with plate bound anti-human CD3 (OKT3) at 2 μg/ml. The stimulation was performed in RPMI medium supplemented with 0.1% BSA. […] RNA was extracted from samples and used to prepare probes for gene array in accord with the manufacturer's instructions (SuperArray Bioscience, Frederick, Md.). Adequate labeling of the probes was tested before hybridization. Three healthy donors were tested in stimulation with cefuroxime. The membranes were analyzed online with the Image Data Acquisition and Expression Analysis (SuperArray Bioscience).
The Human Autoimmune and Inflammatory Response Gene Array (SuperArray Bioscience corporation, Frederick, Md., USA) was used for analysis of gene expression by the T cells. This array contains 367 genes including cytokines, chemokines and their receptors, transcription factors and signaling proteins. […] Analysis of the results was performed using the GEArray analysis program (www.SuperArray.com). […] To verify the results detected by the gene array study, a panel of six genes was designed and tested by real-time PCR: CCR4, ACVR2, JAK1, STAT4, TLR2 and NFKBIE. The cDNA that was used was prepared from the same RNA used for the gene array experiment.

## CO/N=C(\C(=O)N[C@@H]1C(=O)N2C(C(=O)O)=C(COC(N)=O)CS[C@H]12)c1ccco1 [cefuroxime]
[1]; BP10 line stimulated 3 days with MBP in presence of 50 μg/ml, 10^7 cells IP per rat
  severity of adoptive EAE: markedly enhanced the manifestations of EAE; also recorded: enhanced EAE severity; also recorded: enhances the pathogenicity of the BP10 line
[1]; BP10 line stimulated without APC using PMA (50 ng/ml) and Ionomycin (500 ng/ml)
  severity of adoptive EAE: significantly more severe
[1]; dose-response, BP10 line stimulated in presence of 5 μg/ml
  severity of adoptive EAE: ineffective
[1]; dose-response, BP10 line stimulated in presence of 25 μg/ml
  severity of adoptive EAE: enhancing effect similar to that of 50 μg/ml
CD4+ human T cells; array of 367 genes, 50 μg/ml
  number of genes down-regulated: Fifty-seven
CD4+ human T cells; gene ACTB
  % decrease by Cef.: 49 ± 11%
CD4+ human T cells; gene ACVR1
  % decrease by Cef.: 42 ± 0.7%
CD4+ human T cells; gene ACVR2
  % decrease by Cef.: 60 ± 14.8%
CD4+ human T cells; gene CCL5
  % decrease by Cef.: 21 ± 5.6%
CD4+ human T cells; gene CCL11
  % decrease by Cef.: 18 ± 6.6%
CD4+ human T cells; gene CCR4
  % decrease by Cef.: 39 ± 2%
CD4+ human T cells; gene CCR6
  % decrease by Cef.: 53 ± 5.6%
CD4+ human T cells; gene CCR7
  % decrease by Cef.: 38 ± 8.1%
CD4+ human T cells; gene CD28
  % decrease by Cef.: 51 ± 2.1%
CD4+ human T cells; gene CD40LG
  % decrease by Cef.: 33 ± 7.1%
CD4+ human T cells; gene CREB1
  % decrease by Cef.: 19 ± 4.9%
CD4+ human T cells; gene CREBBP
  % decrease by Cef.: 40 ± 9.9%
CD4+ human T cells; gene CXCL10
  % decrease by Cef.: 39 ± 3%
CD4+ human T cells; gene EGR3
  % decrease by Cef.: 38 ± 2.8%
CD4+ human T cells; gene GFI1
  % decrease by Cef.: 45 ± 14%
CD4+ human T cells; gene HRAS
  % decrease by Cef.: 30 ± 9.8%
CD4+ human T cells; gene IL1B
  % decrease by Cef.: 54 ± 7.0%
CD4+ human T cells; gene IL2RB
  % decrease by Cef.: 50 ± 9.9%
CD4+ human T cells; gene IL2RG
  % decrease by Cef.: 57 ± 9.8%
CD4+ human T cells; gene IL9R
  % decrease by Cef.: 27.5 ± 3%
CD4+ human T cells; gene IL16
  % decrease by Cef.: 50 ± 7.8%
CD4+ human T cells; gene IRAK1
  % decrease by Cef.: 44 ± 2.1%
CD4+ human T cells; gene JAK1
  % decrease by Cef.: 53 ± 13.4%
CD4+ human T cells; gene JUN
  % decrease by Cef.: 49 ± 2.2%
CD4+ human T cells; gene LTA
  % decrease by Cef.: 17 ± 10%
CD4+ human T cells; gene MAP2K4
  % decrease by Cef.: 52 ± 14.1%
CD4+ human T cells; gene MAP3K1
  % decrease by Cef.: 53 ± 12%
CD4+ human T cells; gene MAP3K2
  % decrease by Cef.: 36 ± 12%
CD4+ human T cells; gene MAP3K7
  % decrease by Cef.: 46 ± 9.9%
CD4+ human T cells; gene MAPK9
  % decrease by Cef.: 42 ± 10.9%
CD4+ human T cells; gene NFKB1
  % decrease by Cef.: 43 ± 3.5%
CD4+ human T cells; gene NFKB2
  % decrease by Cef.: 53 ± 10.6%
CD4+ human T cells; gene NFKBIE
  % decrease by Cef.: 63 ± 11%
CD4+ human T cells; gene NFKBIL1
  % decrease by Cef.: 54 ± 12.5%
CD4+ human T cells; gene PAK1
  % decrease by Cef.: 40 ± 2.4%
CD4+ human T cells; gene PIN1
  % decrease by Cef.: 45 ± 12.1%
CD4+ human T cells; gene RANBP5
  % decrease by Cef.: 33 ± 3.5%
CD4+ human T cells; gene REL
  % decrease by Cef.: 45 ± 1.9%
CD4+ human T cells; gene RFX5
  % decrease by Cef.: 36 ± 4.2%
CD4+ human T cells; gene RFXAP
  % decrease by Cef.: 27 ± 12%
CD4+ human T cells; gene SDF2
  % decrease by Cef.: 28 ± 12%
CD4+ human T cells; gene SELL
  % decrease by Cef.: 46 ± 7.0%
CD4+ human T cells; gene SMAD4
  % decrease by Cef.: 47 ± 7.0%
CD4+ human T cells; gene SMAD7
  % decrease by Cef.: 47 ± 4.2%
CD4+ human T cells; gene SP3
  % decrease by Cef.: 39 ± 9.9%
CD4+ human T cells; gene SRF
  % decrease by Cef.: 38 ± 1.9%
CD4+ human T cells; gene STAT1
  % decrease by Cef.: 32 ± 11%
CD4+ human T cells; gene STAT4
  % decrease by Cef.: 47 ± 9.3%
CD4+ human T cells; gene STAT6
  % decrease by Cef.: 47 ± 7.9%
CD4+ human T cells; gene TGFBR3
  % decrease by Cef.: 44 ± 3.5%
CD4+ human T cells; gene TGIF
  % decrease by Cef.: 43 ± 3.5%
CD4+ human T cells; gene TLR2
  % decrease by Cef.: 52 ± 14%
CD4+ human T cells; gene TNFRSF11A
  % decrease by Cef.: 43 ± 2%
CD4+ human T cells; gene TNFα
  % decrease by Cef.: 29 ± 8.5%
CD4+ human T cells; gene TRAF5
  % decrease by Cef.: 43 ± 2.2%
CD4+ human T cells; gene TRAF6
  % decrease by Cef.: 43 ± 3.5%
CD4+ human T cells; gene YY1
  % decrease by Cef.: 23 ± 9.1%
